The assay concerns the target T1, human CB2R (Homo sapiens, UniProt P34972).
T1 construct: host or cells: CHO cells
The assay is described as follows: CB2R mediated modulation of cAMP synthesis. It counts as cell-based. As to conditions: for agonistic activity: found through the use of the above described assays. The gist of the method:
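CHO cells expressing human CB2R were treated with compound for 30 min at 37 °C in buffer containing 1 mM IBMX, 0.25% BSA and 10 uM forskolin. cAMP was measured after lysis. EC50 was taken as 50% inhibition of forskolin-stimulated cAMP, with 100% defined by 1 uM CP55940, using a four-parameter logistic fit.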

T1 sequence (P34972 whole entry): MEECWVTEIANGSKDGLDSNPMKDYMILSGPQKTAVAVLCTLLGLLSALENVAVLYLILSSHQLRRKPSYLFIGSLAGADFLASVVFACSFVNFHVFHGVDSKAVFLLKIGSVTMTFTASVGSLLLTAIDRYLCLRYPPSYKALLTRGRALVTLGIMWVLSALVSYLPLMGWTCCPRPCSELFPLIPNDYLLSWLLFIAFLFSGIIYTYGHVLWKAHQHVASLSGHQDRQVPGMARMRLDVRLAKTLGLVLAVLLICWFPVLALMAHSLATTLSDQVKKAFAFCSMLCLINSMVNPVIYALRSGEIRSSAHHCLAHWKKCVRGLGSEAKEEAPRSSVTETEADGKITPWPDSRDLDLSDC

For the compound `Cn1nc(C(C)(C)C)cc1NC(=O)C(C)(C)S(=O)(=O)CC1CCCCO1` (stereo not shown) [N-(5-tert-Butyl-2-methyl-2H-pyrazol-3-yl)-2-methyl-2-(tetrahydro-pyran-2-ylmethanesulfonyl)-propionamide], the agonistic activity result is recorded as “agonistic activity”. Same read-out and setting: then `Cn1nc(C(C)(C)C)cc1NC(=O)C(C)(C)S(=O)(=O)C1CCOCC1` [N-(5-tert-Butyl-2-methyl-2H-pyrazol-3-yl)-2-methyl-2-(tetrahydro-pyran-4-sulfonyl)-propionamide], with “agonistic activity”; and `Cn1nc(C(C)(C)C)cc1NC(=O)C(C)(C)S(=O)(=O)CC1CCOCC1` [N-(5-tert-Butyl-2-methyl-2H-pyrazol-3-yl)-2-methyl-2-(tetrahydro-pyran-4-ylmethanesulfonyl)-propionamide], with “agonistic activity”.

In general, EC50 refers to the midpoint of the concentration-response curve. A lower EC50 goes with a more potent agent. Take `Cc1nc(NC(=O)C(C)(C)S(=O)(=O)Cc2ccc(Cl)cc2)sc1C(C)(C)C` [N-(5-tert-Butyl-4-methyl-thiazol-2-yl)-2-(4-chloro-phenylmethanesulfonyl)-2-methyl-propionamide]: the 50% effective concentration (EC50) came out at 12.1 nM and the agonistic activity result is given as “agonistic activity”.

Turning to `Cc1nc(NC(=O)C(C)(C)S(=O)(=O)C(C)(C)C)sc1C(C)(C)C` [N-(5-tert-Butyl-4-methyl-thiazol-2-yl)-2-methyl-2-(2-methyl-propane-2-sulfonyl)-propionamide], a half-maximal effect (EC50) was put at 10.7 nM and the agonistic activity entry is “agonistic activity”.

For `CCCS(=O)(=O)C(C)(C)C(=O)Nc1nc(C)c(C(C)(C)C)s1` [N-(5-tert-Butyl-4-methyl-thiazol-2-yl)-2-methyl-2-(propane-1-sulfonyl)-propionamide], the EC50 came out at 7.2 nM and the agonistic activity entry is on record as “agonistic activity”. Turning to `Cc1nc(NC(=O)C(C)(C)S(=O)(=O)C(C)C)sc1C(C)(C)C` [N-(5-tert-Butyl-4-methyl-thiazol-2-yl)-2-methyl-2-(propane-2-sulfonyl)-propionamide], a half-maximal response (EC50) required 25.8 nM and the agonistic activity entry is listed as “agonistic activity”.

As to `Cc1nc(NC(=O)C(C)(C)S(=O)(=O)C2CCOCC2)sc1C(C)(C)C` [N-(5-tert-Butyl-4-methyl-thiazol-2-yl)-2-methyl-2-(tetrahydro-pyran-4-sulfonyl)-propionamide], it took 0.3 nM to reach a half-maximal effect (EC50) and the agonistic activity result is “agonistic activity”.

In the case of `Cc1nc(NC(=O)C(C)(C)S(=O)(=O)CC2CCOCC2)sc1C(C)(C)C` [N-(5-tert-Butyl-4-methyl-thiazol-2-yl)-2-methyl-2-(tetrahydro-pyran-4-ylmethanesulfonyl)-propionamide], the EC50 amounted to 0.2 nM and the agonistic activity result is “agonistic activity”. For `Cc1nc(NC(=O)C(C(C)C)S(=O)(=O)C(C)C)sc1C(C)(C)C` (stereo not shown) [N-(5-tert-Butyl-4-methyl-thiazol-2-yl)-3-methyl-2-(propane-2-sulfonyl)-butyramide], the agonistic activity result was “agonistic activity”. With `CC(C)(C)c1nnc(NC(=O)C(C)(C)S(=O)(=O)CC2CCOCC2)s1` [N-(5-tert-Butyl-[1,3,4]thiadiazol-2-yl)-2-methyl-2-(tetrahydro-pyran-4-ylmethanesulfonyl)-propionamide], the agonistic activity entry is given as “agonistic activity”.

As for `CC(C)(C)c1cc(NC(=O)C(C)(C)S(=O)(=O)CC2CCN(S(C)(=O)=O)C2)no1` (stereo not shown) [N-(5-tert-Butyl-isoxazol-3-yl)-2-(1-methanesulfonyl-pyrrolidin-3-ylmethanesulfonyl)-2-methyl-propionamide], it took 44.1 nM to reach a half-maximal effect (EC50) and the agonistic activity entry was “agonistic activity”. For `CC(C)(C)C(=O)CS(=O)(=O)C(C)(C)C(=O)Nc1cc(C(C)(C)C)on1` [N-(5-tert-Butyl-isoxazol-3-yl)-2-(3,3-dimethyl-2-oxo-butane-1-sulfonyl)-2-methyl-propionamide] the same measures were 39.8 nM and “agonistic activity”. The matching figures for `CC(C)(C)c1cc(NC(=O)C(C)(C)S(=O)(=O)Cc2ccc(Cl)cc2)no1` [N-(5-tert-Butyl-isoxazol-3-yl)-2-(4-chloro-phenylmethanesulfonyl)-2-methyl-propionamide]: 16.6 nM and “agonistic activity”. As for `CC(C)(C)c1cc(NC(=O)C(C)(C)S(=O)(=O)CC#N)no1` [N-(5-tert-Butyl-isoxazol-3-yl)-2-cyanomethanesulfonyl-2-methyl-propionamide], the agonistic activity result was “agonistic activity”. `CC(C)(C)c1cc(NC(=O)C(C)(C)S(=O)(=O)CC2CCC2)no1` [N-(5-tert-Butyl-isoxazol-3-yl)-2-cyclobutylmethanesulfonyl-2-methyl-propionamide]: a half-maximal effect (EC50) was put at 3.4 nM and the agonistic activity result was “agonistic activity”. For `CC(C)(C)c1cc(NC(=O)C(C)(C)S(=O)(=O)C2CCCCCC2)no1` [N-(5-tert-Butyl-isoxazol-3-yl)-2-cycloheptanesulfonyl-2-methyl-propionamide], the response was half-maximal at 0.1 nM (EC50) and the agonistic activity result is on record as “agonistic activity”. Consider `CC(C)(C)c1cc(NC(=O)C(C)(C)S(=O)(=O)C2CCCCC2)no1` [N-(5-tert-Butyl-isoxazol-3-yl)-2-cyclohexanesulfonyl-2-methyl-propionamide], for which the 50% effective concentration (EC50) came to 0.2 nM and the agonistic activity result was “agonistic activity”. The matching figures for `CC(C)(C)c1cc(NC(=O)C(C)(C)S(=O)(=O)CC2CCCCC2)no1` [N-(5-tert-Butyl-isoxazol-3-yl)-2-cyclohexylmethanesulfonyl-2-methyl-propionamide]: 0.6 nM and “agonistic activity”.

As for `CC(C)(C)c1cc(NC(=O)C(C)(C)S(=O)(=O)C2CCCC2)no1` [N-(5-tert-Butyl-isoxazol-3-yl)-2-cyclopentanesulfonyl-2-methyl-propionamide], it took 2.4 nM to reach a half-maximal effect (EC50) and the agonistic activity entry was “agonistic activity”. For the compound `CC(C)(C)c1cc(NC(=O)C(C)(C)S(=O)(=O)C2CC2)no1` [N-(5-tert-Butyl-isoxazol-3-yl)-2-cyclopropanesulfonyl-2-methyl-propionamide], the agonistic activity entry was “agonistic activity”.

`CC(C)(C)c1cc(NC(=O)C(C)(C)S(=O)(=O)CC2CC2)no1` [N-(5-tert-Butyl-isoxazol-3-yl)-2-cyclopropylmethanesulfonyl-2-methyl-propionamide]: it took 34.3 nM to reach a half-maximal effect (EC50) and the agonistic activity entry is on record as “agonistic activity”. As to `CCS(=O)(=O)C(C)(C)C(=O)Nc1cc(C(C)(C)C)on1` [N-(5-tert-Butyl-isoxazol-3-yl)-2-ethanesulfonyl-2-methyl-propionamide], the agonistic activity entry was “agonistic activity”. Same read-out and setting: then `CC(C)(C)c1cc(NC(=O)C(C)(C)S(C)(=O)=O)no1` [N-(5-tert-Butyl-isoxazol-3-yl)-2-methanesulfonyl-2-methyl-propionamide], with “agonistic activity”; and `CC(C)(C)c1cc(NC(=O)C(C)(C)S(=O)(=O)CC(F)(F)F)no1` [N-(5-tert-Butyl-isoxazol-3-yl)-2-methyl-2-(2,2,2-trifluoro-ethanesulfonyl)-propionamide], with “agonistic activity”.

The values above are taken from US8829034B2, “Compounds which modulate the CB2 receptor” (Boehringer Ingerlheim International GmbH, priority 2006, dated 2014).
